Source: US9040571B2, “Veterinary formulation for administration of a water-insoluble drug to a target animal through a water distribution system” (Elanco Animal Health Ireland Limited, priority 1999, dated 2015)

Experiment: Particle size distribution by static light scattering, storage stability
Format: physicochemical
Settings: 45 mm lens, tap-water
Experimental: Additionally, the particle size distribution of the original suspoemulsion was determined by static light scattering measurements using a 45 mm lens and tap-water. The stability of the undiluted suspoemulsion as measured by static light scattering measurements was followed over a period of 8 months. The results from the Turbiscan scan measurements were evaluated graphically. […] This implies that the diluted product stays stable under static conditions, like for example in the dosage tank of an automatic injection system.

particle size distribution at t = 0, (D[3, 2] in μm): 1.53 μm
SMILES: COC(=O)Nc1nc2cc(C(=O)c3ccc(F)cc3)ccc2[nH]1 [Fb powder, flubendazole]
